Molecules are shown by their SMILES.

Consider 42 molecules from article PMC6473174, “Ranking Hits From Saturation Transfer Difference Nuclear Magnetic Resonance–Based Fragment Screening” (Frontiers in Chemistry, 2019).

Assay [1] has as its target T1, murine langerin (Mus musculus, UniProt Q8VBX4).
T1 sequence (Q8VBX4 1-331): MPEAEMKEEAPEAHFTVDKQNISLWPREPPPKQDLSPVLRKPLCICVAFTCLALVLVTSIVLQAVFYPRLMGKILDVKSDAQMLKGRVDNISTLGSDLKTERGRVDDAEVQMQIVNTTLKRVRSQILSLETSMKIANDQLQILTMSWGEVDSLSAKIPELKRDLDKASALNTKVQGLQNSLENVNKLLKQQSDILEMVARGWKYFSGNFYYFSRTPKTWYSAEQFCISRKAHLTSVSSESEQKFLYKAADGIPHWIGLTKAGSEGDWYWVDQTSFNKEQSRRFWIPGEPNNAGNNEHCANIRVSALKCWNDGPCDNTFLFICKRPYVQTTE
The assay can be described thus: STD NMR measurements (fragment screening and epitope mapping), STD amplification factor. The assay is classed as binding. The protocol:
STD NMR experiments were performed as described elsewhere (Aretz et al., [2018]). Briefly, 10 μM murine langerin was screened against a library of 660 fragments at a ligand concentration [L] = 0.2 mM using a saturation time of tsat = 4 s. Hits were counter-screened by SPR (see the section Estimation of Affinity Using Surface Plasmon Resonance), enabling affinity estimation and hit validation. For SPR-validated hits, the STD amplification factor was determined as reported earlier (Mayer and Meyer, [2001]) and plotted against affinity (Figure 1A). For epitope mapping of thiazolopyrimidine derivatives (Figure 2E), protein concentration was [P] = 20 μM, ligand concentration was [L] = 0.5–1 mM, and tsat = 1 s. Affinity of all derivatives was estimated by SPR (see the section Estimation of Affinity Using Surface Plasmon Resonance), and the STD amplification factor was determined as reported earlier for the proton in the 7-position of the thiazolopyrimidine scaffold (Mayer and Meyer, [2001]). Spectra were analyzed in MestReNova 10.0.0.

The target in assay [2] is T1, murine langerin. The arrangement: method as in Aretz et al. (2018). As to conditions: estimated by SPR; murine langerin on CM7 chip; 25 mM HEPES pH 7.6, 150 mM NaCl, 5 mM CaCl2, 0.005% Tween-20; ref Aretz et al. (2018); read-out: Affinity; cited from earlier work.
Assay [3] addresses Beta-lactamase (ampC; P00811). As to conditions: read-out: Affinity; AmpC fragment complexes, Figure 2; ref Barelier et al., 2014; cited from earlier work.
The target in assay [4] is Heat shock protein HSP 90-alpha (HSP90AA1; P07900). Also on record: method as in Roughley and Hubbard, 2011. As to conditions: HSP90 fragment complexes, Figure 2; ref Roughley and Hubbard, 2011; read-out: Affinity; cited from earlier work.
Assay [5] concerns the target Glycogen synthase kinase-3 beta (GSK3B; P49841). As to conditions: GSK3b complex PDB 4J71, Figure S4; read-out: Affinity; cited from earlier work.
In assay [6] the target is cAMP and cAMP-inhibited cGMP 3',5'-cyclic phosphodiesterase 10A (PDE10A; Q9Y233). The arrangement: method as in Recht et al., 2014. As to conditions: PDE10A fragment complexes, Figure 2; ref Recht et al., 2014; read-out: Affinity; cited from earlier work.
The mark [7] stands for this setting: Figure 1a fragment screening, [P] = 10 μM, [L] = 0.2 mM, tsat = 4 s.

With `CC(=O)Nc1ccc2nc(C)oc2c1` [S57], the STD amplification factor on murine langerin [1] (setting [7]) is on record as 2. In addition, the Kd on murine langerin [2] is 5.7 ± 0.4 mM.
Regarding `O=c1c(-c2ccn[nH]2)cnc2sccn12` [compound 1], the STD amplification factor at murine langerin [1] (setting [7]) came to 16; at murine langerin [1] (Figure 2e thiazolopyrimidine SAR, proton in 7-position, [P] = 20 μM, [L] = 0.5–1 mM, tsat = 1 s), 1.8. Moreover, at murine langerin [2], the Kd was 0.8 ± 0.1 mM.
For the molecule `CN(C)C(=O)c1csc(-c2ccccc2)n1` [S52], the STD amplification factor at murine langerin [1] (setting [7]) is 3. Also, the Kd at murine langerin [2] is 2.7 ± 0.4 mM.
The molecule `CN(C)S(=O)(=O)c1cccc(C(=O)O)c1` [S15] displayed an STD amplification factor on murine langerin [1] (setting [7]) of 41. Besides, at murine langerin [2], the Kd was 11.3 ± 3 mM.
Molecule `Cc1cc(C)c(S(=O)(=O)C(C)C)c(Cl)n1` [S38] yielded an STD amplification factor at murine langerin [1] (setting [7]) of 4. Besides, at murine langerin [2], the Kd was 4.7 ± 0.7 mM.
Consider `COc1ccccc1/C=C1/C(=O)N=C(N)N1C` [S31], for which the STD amplification factor at murine langerin [1] (setting [7]) was found to be 5. Besides, at murine langerin [2], the Kd is 4 ± 2 mM.
As for `CC1CCCC(C(=O)O)N1C(=O)CCS` (stereo not shown) [CHEMBL331575], in assay [3], the Kd is 0.8 mM.
The molecule `Nc1cccc2c1CN(C1CCCCC1)C2=O` [S11] had an STD amplification factor at murine langerin [1] (setting [7]) of 23. In addition, at murine langerin [2], the Kd is 0.7 ± 0.2 mM.
For the molecule `Nc1ccc2sc(C(=O)O)cc2c1` [S66], the STD amplification factor at murine langerin [1] (setting [7]) came to 44. Besides, at murine langerin [2], the Kd was 11.6 ± 0.1 mM.
As to `CCC(=O)c1ccc(O)cc1O` [CHEMBL539379], the Kd in assay [4] was 0.57 mM.
Consider `COc1ccc(NS(C)(=O)=O)cc1` [S56], for which the STD amplification factor at murine langerin [1] (setting [7]) is 3. Moreover, the Kd on murine langerin [2] is 16.8 ± 3.6 mM.
Take `O=C1NC(=O)C(Cc2ccncc2)S1` (stereo not shown) [S61]: on murine langerin [1] (setting [7]), the STD amplification factor is reported as 16. For the same molecule, on murine langerin [2], the Kd is 3.8 ± 0.3 mM.
For the molecule `CNC(=O)Nc1nnc(C(C)(C)C)s1` [S44], the STD amplification factor on murine langerin [1] (setting [7]) is 7. For the same molecule, the Kd on murine langerin [2] is 2.9 ± 0.4 mM.
At murine langerin [1] (setting [7]), `O=C(O)Cc1cccc2occc12` [S6] gave an STD amplification factor of 55. Moreover, on murine langerin [2], the Kd is 4.3 ± 0.5 mM.
In the case of `COC(=O)Cc1cc(O)cc(O)c1` [CHEMBL540934], the Kd in assay [4] was 0.49 mM.
Take `O=C(O)c1sccc1S(=O)(=O)NC1CC1` [4KZA]: the Kd in assay [3] is 0.2 mM.
Consider `OCc1cc(-c2ccccc2)on1` [S58], for which, on murine langerin [1] (setting [7]), the STD amplification factor is on record as 19. For the same molecule, the Kd at murine langerin [2] is 2.3 ± 0.1 mM.
`COC(=O)c1cc(C)c(N)c(Br)c1` [S39] registered an STD amplification factor at murine langerin [1] (setting [7]) of 49. Besides, the Kd at murine langerin [2] is 28 ± 9 mM.
In the case of `CN(C)C(=O)Oc1cccc(C(=O)O)c1` [S22], the STD amplification factor at murine langerin [1] (setting [7]) was found to be 24. Moreover, the Kd on murine langerin [2] was roughly 4 mM.
In the case of `COC(=O)c1cc2c(s1)CCC2` [S65], the STD amplification factor at murine langerin [1] (setting [7]) was determined as 43. The Kd on murine langerin [2] was 4.5 ± 0.7 mM.
`CC(=O)c1ccn(S(=O)(=O)c2ccccc2)c1` [S36] gave an STD amplification factor on murine langerin [1] (setting [7]) of 44. Also, the Kd on murine langerin [2] was 19 ± 1 mM.
With `C[C@@H]1Nc2cccnc2NC1=O` [CHEMBL3941552], the Kd in assay [5] was greater than 3 mM.
As to `O=C(O)/C=C/c1ccc2c(c1)OCCO2` [S14], at murine langerin [1] (setting [7]), the STD amplification factor came out at 36. For the same molecule, the Kd on murine langerin [2] was 2.2 ± 0.2 mM.
Turning to `c1ccc(-c2nnc3n2CCCC3)cc1` [S30], the STD amplification factor on murine langerin [1] (setting [7]) was determined as 8. The Kd on murine langerin [2] is 10 ± 3 mM.
On murine langerin [1] (setting [7]), `COc1cc(C(=O)O)c(Br)cc1C` [S42] displayed an STD amplification factor of 79. Moreover, the Kd at murine langerin [2] is 5.4 ± 0.9 mM.
Consider `NC(=O)c1ccccc1N` [CHEMBL43175], for which, in assay [4], the Kd is greater than 0.4 mM.
As for `CCN1C(=O)CC(=O)N(CC)C1=S` [CHEMBL2136061], the Kd in assay [3] was 1.6 mM.
Regarding `N#Cc1c(N)sc2c1CCCC2` [S13], the STD amplification factor at murine langerin [1] (setting [7]) was 33. Moreover, the Kd at murine langerin [2] is 1.5 ± 0.3 mM.
With `C[C@@H](C(=O)O)N(c1ccccc1)S(C)(=O)=O` [4KZB], the Kd in assay [3] is 1.3 mM.
Molecule `Cc1ccsc1/C=C/C(=O)O` [S8] came in with an STD amplification factor on murine langerin [1] (setting [7]) of 86. For the same molecule, at murine langerin [2], the Kd is 3.4 ± 0.4 mM.
`Cc1nnc(-c2ccccc2)nc1O` [S3] showed an STD amplification factor at murine langerin [1] (setting [7]) of 19. At murine langerin [2], the Kd is 4.7 ± 0.6 mM.
On to `COc1cc(C(C)=O)ccc1N` [S63], for which, at murine langerin [1] (setting [7]), the STD amplification factor is listed as 4. Besides, the Kd at murine langerin [2] is 9 ± 1 mM.
Take `Cc1nc2ccccc2c(=O)[nH]1` [CHEMBL395092]: the Kd in assay [6] was 0.99 mM.
`CCNCc1cc(O)ccc1Br` [S59]: the STD amplification factor at murine langerin [1] (setting [7]) came to 13. Further, the Kd at murine langerin [2] was 2 ± 0.3 mM.
As for `O=C(O)c1cccn(Cc2ccccc2)c1=O` [S55], the STD amplification factor at murine langerin [1] (setting [7]) worked out at 10. Also, the Kd on murine langerin [2] is 24.7 ± 10.3 mM.
Turning to `NC(=O)c1ccc(Cl)s1` [S18], the STD amplification factor at murine langerin [1] (setting [7]) is 21. The Kd at murine langerin [2] was 3.5 ± 0.2 mM.
Regarding `Cn1cc(CC(=O)O)c2ccccc21` [S53], the STD amplification factor on murine langerin [1] (setting [7]) stood at 37. At murine langerin [2], the Kd was 3 ± 0.1 mM.
With `COc1ccc2c(c1)C(CC(=O)O)CC2=O` (stereo not shown) [S12], the STD amplification factor on murine langerin [1] (setting [7]) turned out to be 10. Moreover, the Kd at murine langerin [2] was 1.1 ± 0.2 mM.
The molecule `O=C1NC(=O)[C@@H]2CN(Cc3ccccc3)C[C@H]12` [S23] gave an STD amplification factor on murine langerin [1] (setting [7]) of 4. Also, the Kd on murine langerin [2] was 4.9 ± 0.2 mM.
With `CCN1C(=O)c2ccccc2NC12CCCC2` [S37], the STD amplification factor on murine langerin [1] (setting [7]) is 2. For the same molecule, the Kd at murine langerin [2] was 13 ± 2 mM.
Take `CCC(C)(C(=O)O)c1cccs1` (stereo not shown) [S21]: the STD amplification factor on murine langerin [1] (setting [7]) is given as 13. Moreover, at murine langerin [2], the Kd was 3.3 ± 0.2 mM.
In turn, `O=C(Nc1ccccc1O)c1cccnc1Cl` [S60] had an STD amplification factor on murine langerin [1] (setting [7]) of 24. In addition, the Kd on murine langerin [2] is 2.4 ± 0.1 mM.
